For 36 compounds, IC50 results are on record in patent publication US10414740B2, “Glutaminase inhibitors and method of use” (Agios Pharmaceuticals, Inc., priority 2012, dated 2019).

The IC50 is the concentration that inhibits the measured activity by half. A low value points to inhibition by little substance.

This experiment concerns the target T1, glutaminase (GAC) (Homo sapiens, UniProt O94925).
T1 sequence (O94925 55-598 isoform O94925-3 limits assumed): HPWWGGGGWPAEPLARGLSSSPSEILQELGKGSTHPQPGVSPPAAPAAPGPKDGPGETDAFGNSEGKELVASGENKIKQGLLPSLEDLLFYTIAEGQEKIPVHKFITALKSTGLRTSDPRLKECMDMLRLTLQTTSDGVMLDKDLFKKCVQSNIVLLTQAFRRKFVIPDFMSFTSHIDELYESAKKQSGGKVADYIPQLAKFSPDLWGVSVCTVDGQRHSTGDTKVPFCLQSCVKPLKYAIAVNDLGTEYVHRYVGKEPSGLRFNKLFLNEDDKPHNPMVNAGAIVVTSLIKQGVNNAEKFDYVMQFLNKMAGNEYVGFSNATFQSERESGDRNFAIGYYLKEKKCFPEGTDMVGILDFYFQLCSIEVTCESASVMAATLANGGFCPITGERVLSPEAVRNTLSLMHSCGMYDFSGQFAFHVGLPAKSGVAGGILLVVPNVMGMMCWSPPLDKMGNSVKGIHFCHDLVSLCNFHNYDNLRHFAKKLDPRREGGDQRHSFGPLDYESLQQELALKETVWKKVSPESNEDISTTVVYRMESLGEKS
Description: glutaminase coupled endpoint assay (Example A). In kind it is biochemical. The following applies: inhibition of glutaminase; IC50 tested in an assay of Example A or Example B. The method, then:
In this example, the enzymatic activity of glutaminase is measured through a coupled endpoint assay. […] The glutamate produced is converted to 2-OG by a kinetic excess of glutamate dehydrogenase. […] However, a kinetic excess of the third coupling enzyme, diaphorase, recycles NAD from NADH to keep the NAD concentration constant during the timecourse of the assay. Diaphorase, also supplied in kinetic excess, oxidizes NADH produced by GDH back to NAD with the concomitant reduction of rezasurin to the highly fluorescent resorufin. […] A reduction in the signal indicates inhibition of some component of the coupled enzyme system. Prospective hits are counterscreened against GDH/diaphorase alone to remove hits to the coupling enzyme system in a second assay.
2. […] Add 1 μl a compound in 100% DMSO 2. Add 40 μl of Enzyme Mix and incubate for 60 minute at room temperature 3. Add 10 μl of Substrate Mix to start reaction 4.
With `O=C(CCc1cccnc1)Nc1nnc(CCS(=O)(=O)CCc2nnc(NC(=O)CCc3cccnc3)s2)s1` [Compound 35], the half-inhibitory concentration (IC50) lay in the range of 100 to 500 nM. As to `NCCCOc1ccc(CC(=O)Nc2nnc(CCS(=O)(=O)CCc3nnc(NC(=O)Cc4ccccc4)s3)s2)cc1` [Compound 36, 2-(4-(3-aminopropoxy)phenyl)-N-(5-(2-((2-(5-(2-phenylacetamido)-1,3,4-thiadiazol-2-yl)ethyl)sulfonyl)ethyl)-1,3,4-thiadiazol-2-yl)acetamide], the IC50 is < 100 nM. As to `O=C(Cc1ccc(O)cc1)Nc1nnc(CCCCc2nnc(NC(=O)Cc3ccc(O)cc3)s2)s1` [Compound 38, N,N′-(5,5′-(butane-1,4-diyl)bis(1,3,4-thiadiazole-5,2-diyl))bis(2-(4-hydroxyphenyl)acetamide)], the 50% inhibitory concentration (IC50) is 100 to 500 nM. To `O=C(CCCC(=O)c1ccccc1)Nc1nnc(CCCCc2nnc(NC(=O)CCCC(=O)c3ccccc3)s2)s1` [Compound 40, N,N′-(5,5′-(butane-1,4-diyl)bis(1,3,4-thiadiazole-5,2-diyl))bis(5-oxo-5-phenylpentanamide)] belongs < 100 nM; to `Cn1c(=O)c2c(ncn2CC(=O)Nc2nnc(CCCCc3nnc(NC(=O)Cn4cnc5c4c(=O)n(C)c(=O)n5C)s3)s2)n(C)c1=O` [Compound 41], 1000 to 10000 nM. To `Cc1cc(CC(=O)Nc2nnc(CCCCc3nnc(NC(=O)Cc4cc(C)no4)s3)s2)on1` [Compound 42, N,N′-(5,5′-(butane-1,4-diyl)bis(1,3,4-thiadiazole-5,2-diyl))bis(2-(3-methylisoxazol-5-yl)acetamide)] belongs 100 to 500 nM. The compound `COc1ccc2c(c1)C(CC(=O)Nc1nnc(CCCCc3nnc(NC(=O)CC4CC(=O)c5ccc(OC)cc54)s3)s1)CC2=O` (stereo not drawn) [Compound 43, N,N′-(5,5′-(butane-1,4-diyl)bis(1,3,4-thiadiazole-5,2-diyl))bis(2-(6-methoxy-3-oxo-2,3-dihydro-1H-inden-1-yl)acetamide)] yielded an IC50 of 100 to 500 nM. Compound `Nc1nnc(CCCCc2nnc(NC(=O)CCc3ccccc3O)s2)s1` [Compound 44] returned an IC50 of 1000 to 10000 nM. Consider `O=C(CCc1ccccc1O)Nc1nnc(CCCCc2nnc(NC(=O)CCc3ccccc3O)s2)s1` [Compound 45], for which the concentration for half-maximal inhibition (IC50) is < 100 nM. As for `CN(CC(=O)Nc1nnc(CCCCc2nnc(NC(=O)CN(C)C(=O)OC(C)(C)C)s2)s1)C(=O)OC(C)(C)C` [Compound 46, Di-tert-butyl 2,2′-(5,5′-(butane-1,4-diyl)bis(1,3,4-thiadiazole-5,2-diyl))bis(azanediyl)bis(2-oxoethane-2,1-diyl)bis(methylcarbamate)], the IC50 was 100 to 500 nM. For the compound `O=C(Cc1ccccn1)Nc1nnc(CCCCc2nnc(NC(=O)Cc3ccccn3)s2)s1` [Compound 47, N,N′-(5,5′-(butane-1,4-diyl)bis(1,3,4-thiadiazole-5,2-diyl))bis(2-(pyridin-2-yl)acetamide)], the IC50 is < 100 nM. To `O=C(Cc1ccccc1)Nc1nnc(CCSCc2nnc(NC(=O)Cc3ccccc3)s2)s1` [Compound 48] belongs < 100 nM; to `O=C(CCc1ccco1)Nc1nnc(CCCCc2nnc(NC(=O)CCc3ccco3)s2)s1` [Compound 49, N,N′-(5,5′-(butane-1,4-diyl)bis(1,3,4-thiadiazole-5,2-diyl))bis(3-(furan-2-yl)propanamide)], 100 to 500 nM. In the case of `CC(C(=O)Nc1nnc(CCCCc2nnc(NC(=O)C(C)c3ccc(N4Cc5ccccc5C4=O)cc3)s2)s1)c1ccc(N2Cc3ccccc3C2=O)cc1` (stereo not drawn) [Compound 50, N,N′-(5,5′-(butane-1,4-diyl)bis(1,3,4-thiadiazole-5,2-diyl))bis(2-(4-(1-oxoisoindolin-2-yl)phenyl)propanamide)], the IC50 fell in the range of 100 to 500 nM.

`O=C(Cc1cccc2ccccc12)Nc1nnc(CCCCc2nnc(NC(=O)Cc3cccc4ccccc34)s2)s1` [Compound 51, N,N′-(5,5′-(butane-1,4-diyl)bis(1,3,4-thiadiazole-5,2-diyl))bis(2-(naphthalen-1-yl)acetamide)]: the IC50 was in the range of 100 to 500 nM. In turn, `CC(C(=O)Nc1nnc(CCCCc2nnc(NC(=O)C(C)c3ccc(Cl)cc3)s2)s1)c1ccc(Cl)cc1` (stereo not drawn) [Compound 52, N,N′-(5,5′-(butane-1,4-diyl)bis(1,3,4-thiadiazole-5,2-diyl))bis(2-(4-chlorophenyl)propanamide)] gave an IC50 of 100 to 500 nM. On to `COc1cccc(CCC(=O)Nc2nnc(CCCCc3nnc(NC(=O)CCc4cccc(OC)c4)s3)s2)c1` [Compound 53, N,N′-(5,5′-(butane-1,4-diyl)bis(1,3,4-thiadiazole-5,2-diyl))bis(3-(3-methoxyphenyl)propanamide)], for which the IC50 was < 100 nM. `O=C(CCc1cccnc1)Nc1nnc(CCCCc2nnc(NC(=O)CCc3cccnc3)s2)s1` [Compound 54, N,N′-(5,5′-(butane-1,4-diyl)bis(1,3,4-thiadiazole-5,2-diyl))bis(3-(pyridin-3-yl)propanamide)] came in with a half-maximal inhibitory concentration (IC50) of 500 to 1000 nM. As for `O=C(Cc1ccc2c(c1)OCO2)Nc1nnc(CCCCc2nnc(NC(=O)Cc3ccc4c(c3)OCO4)s2)s1` [Compound 55, N,N′-(5,5′-(butane-1,4-diyl)bis(1,3,4-thiadiazole-5,2-diyl))bis(2-(benzo[d][1,3]dioxol-5-yl)acetamide)], the IC50 is < 100 nM.

Compound `O=C(Cc1ccccc1)Nc1nnc(CCS(=O)(=O)Cc2nnc(NC(=O)Cc3ccccc3)s2)s1` [Compound 56] came in with an IC50 of 100 to 500 nM. Under `O=C(Cc1ccccn1)Nc1nnc(CCSCc2nnc(NC(=O)Cc3ccccn3)s2)s1` [Compound 57] stands < 100 nM.

In the case of `CC(=O)Oc1cccc(C(=O)Nc2nnc(CCCCc3nnc(NC(=O)c4cccc(OC(C)=O)c4C)s3)s2)c1C` [Compound 58], the 50% inhibitory concentration (IC50) lay in the range of 1000 to 10000 nM. Under `O=C(CCN1CCCCC1)Nc1nnc(CCCCc2nnc(NC(=O)CCN3CCCCC3)s2)s1` [Compound 59] stands 1000 to 10000 nM. With `O=C(Cc1noc2ccccc12)Nc1nnc(CCCCc2nnc(NC(=O)Cc3noc4ccccc34)s2)s1` [Compound 60, N,N′-(5,5′-(butane-1,4-diyl)bis(1,3,4-thiadiazole-5,2-diyl))bis(2-(benzo[d]isoxazol-3-yl)acetamide)], the half-maximal inhibitory concentration (IC50) was < 100 nM. Consider `COc1ccc2[nH]cc(CC(=O)Nc3nnc(CCCCc4nnc(NC(=O)Cc5c[nH]c6ccc(OC)cc56)s4)s3)c2c1` [Compound 61, N,N′-(5,5′-(butane-1,4-diyl)bis(1,3,4-thiadiazole-5,2-diyl))bis(2-(5-methoxy-1H-indol-3-yl)acetamide)], for which the IC50 is < 100 nM. Under `CC(CC(=O)c1ccccc1)C(=O)Nc1nnc(CCCCc2nnc(NC(=O)C(C)CC(=O)c3ccccc3)s2)s1` (stereo not drawn) [Compound 62, N,N′-(5,5′-(butane-1,4-diyl)bis(1,3,4-thiadiazole-5,2-diyl))bis(2-methyl-4-oxo-4-phenylbutanamide)] stands 100 to 500 nM; under `COc1ccc(CC(=O)Nc2nnc(CCCCc3nnc(NC(=O)Cc4ccc(OC)c(OC)c4)s3)s2)cc1OC` [Compound 63, N,N′-(5,5′-(butane-1,4-diyl)bis(1,3,4-thiadiazole-5,2-diyl))bis(2-(3,4-dimethoxyphenyl)acetamide)], < 100 nM. Under `O=C(Nc1nnc(CCCCc2nnc(NC(=O)C3CC=CC3)s2)s1)C1CC=CC1` [Compound 64, N,N′-(5,5′-(butane-1,4-diyl)bis(1,3,4-thiadiazole-5,2-diyl))dicyclopent-3-enecarboxamide] stands 100 to 500 nM. Under `Cc1ccc(OCC(=O)Nc2nnc(CCCCc3nnc(NC(=O)COc4ccc(C)cc4C)s3)s2)c(C)c1` [Compound 65] stands 1000 to 10000 nM; under `CCOC(=O)CCC(=O)Nc1nnc(CCCCc2nnc(NC(=O)CCC(=O)OCC)s2)s1` [Compound 66, Diethyl 4,4′-(5,5′-(butane-1,4-diyl)bis(1,3,4-thiadiazole-5,2-diyl))bis(azanediyl)bis(4-oxobutanoate)], 100 to 500 nM. `Cc1ccc(C)c(OCC(=O)Nc2nnc(CCCCc3nnc(NC(=O)COc4cc(C)ccc4C)s3)s2)c1` [Compound 67] gave an IC50 of 1000 to 10000 nM. Under `CC(=O)NCCC(=O)Nc1nnc(CCCCc2nnc(NC(=O)CCNC(C)=O)s2)s1` [Compound 68] stands 1000 to 10000 nM; under `CC(=O)NCCCC(=O)Nc1nnc(CCCCc2nnc(NC(=O)CCCNC(C)=O)s2)s1` [Compound 70], 1000 to 10000 nM; under `O=C(Cc1nn[nH]n1)Nc1nnc(CCCCc2nnc(NC(=O)Cc3nn[nH]n3)s2)s1` [Compound 71, N,N′-(5,5′-(butane-1,4-diyl)bis(1,3,4-thiadiazole-5,2-diyl))bis(2-(1H-tetrazol-5-yl)acetamide)], 100 to 500 nM.

For `CC(=O)CCCCC(=O)Nc1nnc(CCCCc2nnc(NC(=O)CCCCC(C)=O)s2)s1` [Compound 72, N,N′-(5,5′-(butane-1,4-diyl)bis(1,3,4-thiadiazole-5,2-diyl))bis(6-oxoheptanamide)], the IC50 was 100 to 500 nM.

`O=C(CCc1nnc(NC(=O)Cc2ccccn2)s1)CCc1nnc(NC(=O)Cc2ccccn2)s1` [Compound 73] yielded an IC50 of 500 to 1000 nM.
